{"source": "patent US20150290354A1", "about": "“NONWOVEN FIBER MATERIALS” (NORTH CAROLINA STATE UNIVERSITY, priority 2012, published 2015)", "assay_in_all_cases": "Minimum inhibitory / bactericidal concentration (MIC/MBC) test, 96-well serial dilution", "key": {"[1]": {"tested_on": "Escherichia coli J53", "type": "cell-based", "conditions": "n=6", "experimental": "(§1) A minimum inhibitory concentration (MIC) test was conducted to measure the efficiency of certain silver-based antimicrobials against each bacterial isolate. A sterile round-bottom plastic 96-well plate containing […] of serially 1:2 diluted concentrations of antimicrobial solutions was inoculated with […] of 5-8×10^5 CFU/ml of each bacterial isolate. Each antimicrobial sample was tested at 15 serially diluted concentrations starting at their original highest concentration (0.015-1000 μg/ml).\n(§2) After 24 h of incubation, 10 μl of the suspension from all of the clear wells (showing no bacterial growth) was dropped onto a MH agar plate and incubated for 24 h.\n(§3) The mass concentration of these nanoparticles dispersed in water was 1.0 mg/mL The Silvadur ET solution containing 2.6-3.1 wt % silver ions was used at its original concentration (1.0 mg/mL). Silver nitrate was also dissolved in distilled water to create a 1 mg/mL solution. A gram negative (Escherichia coli J53) and gram positive (staphylococcus aureus—a common bacteria to cause skin infections) bacteria were employed for the experiment. Cation-adjusted Mueller-Hinton (MH) broth and agar (Difco Laboratories, Detroit, Mich., USA) were utilized to prepare bacterial cultivating medium. Isolated bacterial colonies were grown overnight in an incubator (37° C., 5% CO2) from frozen samples on an agar plate. For Agresistant bacteria (E. coli J53 [pMG101]), […] ampicillin sodium salt (Fisher Scientific, USA) was also added to the agar plates. The bacterial colony was suspended in phosphate buffered saline (PBS) to obtain 0.5 McFarland (10^5 CFU/ml). Microplates were incubated at 37° C. and shaken at 200 rpm for 24 hours. To control the accuracy of bacterial seeding density, bacteria were diluted in PBS at 103, 104, 105, and 106 and cultured overnight.\n(§4) A gram negative (Escherichia coli J53) and gram positive (staphylococcusaureus, a common bacteria that causes skin infections) bacteria were employed for the experiment. Cation-adjusted Mueller-Hinton (MH) broth and agar (Difco Laboratories, Detroit, Mich., USA) were used to prepare bacterial cultivating medium. Isolated bacterial colonies were grown overnight in an incubator (37° C., 5% CO2) from frozen samples on an agar plate. For Ag-resistant bacteria (E. coli J53 [pMG101]) […] ampicillin sodium salt (Fisher Scientific, USA) was also added to the agar plates. The bacterial colony was suspended in phosphate buffered saline (PBS) to get 0.5 McFarland (10^5 CFU/ml). Microplates were incubated at 37° C. and shaken at 200 rpm for 24 h. To control the accuracy of bacterial seeding density, bacteria were diluted in PBS at 10^3, 10^4, 10^5, and 10^6 and plated overnight.\nas §1, with “The minimum” for “A minimum”, “of silver based” for “of certain silver-based”, “μg/ml). […] After 24 h of incubation, 10 μl of the suspension from all of the clear wells (showing no bacterial growth) was dropped onto a MH agar plate and incubated for 24 h.” for “μg/ml).”"}, "[2]": {"tested_on": "Staphylococcus aureus", "type": "cell-based", "conditions": "n=6", "experimental": "as §1, §2, §3, §4\nas §1, with “The minimum” for “A minimum”, “of silver based” for “of certain silver-based”, “μg/ml). […] After 24 h of incubation, 10 μl of the suspension from all of the clear wells (showing no bacterial growth) was dropped onto a MH agar plate and incubated for 24 h.” for “μg/ml).”"}, "[3]": {"tested_on": "E. Coli J53pMG101 (silver resistant)", "type": "cell-based, Escherichia coli", "conditions": "up to 1000 μg/ml", "experimental": "as §1, §2\nThe mass concentration of these nanoparticles dispersed in water was 1.0 mg/mL The Silvadur ET solution containing 2.6-3.1 wt % silver ions was used at its original concentration (1.0 mg/mL). Silver nitrate was also dissolved in distilled water to create a 1 mg/mL solution. A gram negative (Escherichia coli J53) and gram positive (staphylococcus aureus—a common bacteria to cause skin infections) bacteria were employed for the experiment. Cation-adjusted Mueller-Hinton (MH) broth and agar (Difco Laboratories, Detroit, Mich., USA) were utilized to prepare bacterial cultivating medium. Isolated bacterial colonies were grown overnight in an incubator (37° C., 5% CO2) from frozen samples on an agar plate. […]"}, "[4]": {"conditions": "Table 1, Example 1, 24 h incubation"}}, "note": "Entries after “also recorded” stand apart in the source; their conditions may differ."}
{"smiles": "O=[N+]([O-])[O-].[Ag+]", "note": "[Silver nitrate]", "values": [{"measurement": "Minimum Inhibitory Concentrations (MIC) Escherichia coli J53", "setting": "[1]; [4]", "value": 7.81, "unit": "µg/mL"}, {"measurement": "Minimum Bacterial Concentrations (MBC) Escherichia coli J53", "setting": "[1]; Table 2, Example 1", "value": 15.62, "unit": "µg/mL"}, {"measurement": "Minimum Inhibitory Concentrations (MIC) Escherichia coli J53", "setting": "[1]; Table 9, Example 4", "value": 7.81, "unit": "µg/mL"}, {"measurement": "Minimum Bacterial Concentrations (MBC) Escherichia coli J53", "setting": "[1]; Table 10, Example 4", "value": 15.62, "unit": "µg/mL"}, {"measurement": "Minimum Inhibitory Concentrations (MIC) Staphylococcus aureus", "setting": "[2]; [4]", "value": 15.62, "unit": "µg/mL"}, {"measurement": "Minimum Bacterial Concentrations (MBC) Staphylococcus aureus", "setting": "[2]; Table 2, Example 1", "value": 31.25, "unit": "µg/mL"}, {"measurement": "Minimum Inhibitory Concentrations (MIC) Staphylococcus aureus", "setting": "[2]; Table 9, Example 4", "value": 15.62, "unit": "µg/mL"}, {"measurement": "Minimum Bacterial Concentrations (MBC) Staphylococcus aureus", "setting": "[2]; Table 10, Example 4", "value": 31.25, "unit": "µg/mL"}, {"measurement": "Observation of silver resistant E. coli J53 (pMG101) in the presence of the antimicrobial", "setting": "[3]", "value": "confirmed the resistance of E. coli J53 to silver; also recorded: confirmed its resistance to silver"}]}
